Test results: patent US6709830B2, “Methods for modulating the activation of a lymphocyte expressed G protein coupled receptor involved in cell proliferation, autoimmunity and inflammation” (The Regents of the University of California, priority 1997, dated 2004)

Columns and labels:
[1] = system: CHO GFP cells; assay: ERK MAP kinase assay in control CHO GFP cells; format: cell-based, Chinese hamster; conditions: serum starved CHO GFP cells, LPC 0.01 μM to 10 μM, 10 minutes
Method: Further exploration of the cellular response to LPC was undertaken in Chinese hamster ovary (CHO) cells. Stable lines of G2A expressing CHO cells were derived by infection with retroviruses encoding G2A.GFP (MSCV G2A.GFP). We examined ERK MAP kinase activity in control CHO GFP and CHO G2A.GFP cells in response to varying doses of LPC (0.01 μM to 10 μM).
CHO GFP or CHO G2A.GFP cells were serum starved for 18 hours prior to treatment with LPC for 10 minutes at 37° C. Western blotting was performed to detect activated p44/42 ERK MAP kinase using a specific phospho-ERK antibody (Santa Cruz Biotechnology,).

[2] = molecular target: T1, G2A (Mus musculus, UniProt Q9Z282); assay: Radioligand binding assay with cell homogenates of HEK 293 G2A.GFP cells; conditions: HEK 293 G2A.GFP cell homogenate
T1 construct: expressed in transfected cells; host or cells: MCF 10A (human breast epithelial cells, no endogenous G2A), plasmid pEXV3 G2A.GFP
T1 sequence (Q9Z282 1-382): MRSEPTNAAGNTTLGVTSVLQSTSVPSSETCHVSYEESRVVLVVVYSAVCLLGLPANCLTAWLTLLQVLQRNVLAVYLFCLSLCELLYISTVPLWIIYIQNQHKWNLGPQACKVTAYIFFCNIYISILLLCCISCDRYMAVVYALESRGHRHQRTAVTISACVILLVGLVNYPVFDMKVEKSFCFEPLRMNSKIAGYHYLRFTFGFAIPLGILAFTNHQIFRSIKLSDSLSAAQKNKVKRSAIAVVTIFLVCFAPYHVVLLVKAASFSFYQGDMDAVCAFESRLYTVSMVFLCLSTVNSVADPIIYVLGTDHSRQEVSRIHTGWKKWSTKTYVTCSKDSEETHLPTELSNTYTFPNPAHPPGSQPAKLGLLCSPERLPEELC
Method: To characterise the binding of LPC and SPC to G2A, we performed radioligand binding assays as described previously (Xu, Y, e al, Nature Cell Biology, 2: pp261-267, 2000). [^3H] 16:0 LPC and [^3H] SPC bound to cell homogenates from G2A expressing HEK 293 cells in a time-dependent manner and reached equilibrium after 60 minutes incubation at 4° C. (FIGS. 5A and B). […] LPC and [^3H] SPC. Binding of [^3H] LPC and [^3H] […] The maximum binding capacities for LPC and SPC were approximately 1,503 fmole/10^5 cells and 1,840 fmole/10^5 cells respectively.
Binding assay HEK 293 GFP or HEK 293 G2A.GFP cells were serum starved for 20 hours and subsequently collected in PBS/EDTA. Pelleted cells were stored at −80° C. until use. Frozen cells (10^6 cells/ml) were homogenized in “binding buffer” containing 20 mM Tris-HCl pH 7.5, 100 mM NaCl, 15 mM NaF, 0.2 mM PMSF, 1 mM MgCl2 and 4 mg/ml fatty acid-free BSA in a tight-fit glass Dounce homogeniser. Assays were performed in 96-well plates in triplicate with 100 μl cell homogenate (equivalent to 10^5 cells/well). Varying amounts of [^3H] 16:0 LPC or [^3H] SPC were added to cell homogenates in 50 μl of binding buffer in the presence or absence of cold 16:0 LPC or SPC, or other competitors. Plates were incubated at 4° C. for 2 hours, or for the indicated times. Cell-bound [^3H] LPC or [^3H] SPC was collected onto a filter (Printed Filtermat A, Wallac, Gaithersburg, Md.) using an automated cell harvester (HARVESTER 96, Tomtec, Orange, Conn.). A pause wash programme (five cycle washes) was used. Filters were presoaked in 1% polyethyleneimine (Sigma) to prevent nonspecific binding, dried, sealed in bags (Sample Bag, Wallac) with 4.5 ml Betaplate “Scint” scintillation cocktail (Wallac), and counted in a 1450 Microbeta Trilux Liquid Scintillation and Luminescence Counter (Wallac). Specific binding was calculated by subtraction of nonspecific binding (binding detected in the presence of 100-fold excess unlabelled lipid) from total binding.

Kd ([2]; Scatchard analysis, saturation binding of [3H] 16:0 LPC or [3H] SPC, 4° C., read-out: dissociation constant (Kd)): 65 nM | maximum binding capacity ([2]; saturation binding): approximately 1,503 fmole/10^5 cells
Substance: lysophosphatidylcholine [LPC]
ERK MAP kinase activity in control cells [1]: did not respond
